This is an account of results in patent US20180303845A1, “USE OF TLR8 AGONISTS TO TREAT CANCER” (VentiRx Pharmaceuticals, Inc., priority 2015, published 2018).

Molecules are shown by their SMILES.

One series deals with EGFR^| UM-22B HNC cells. Kind of series: 51Cr release assay of cetuximab-mediated ADCC by motolimod-pre-treated PBMC or isolated NK. It is filed as cell-based. The protocol:
(§1) PBMC cytokine release was also measured using a multiplex cytokine assay. FcγR III-158 genotype was determined using a quantitative PCR-based assay kit. Significant differences in ADCC by FcγR Ma or TLR8 genotype were determined using a Kruskal-Wallis one-way analysis of variance, and a post hoc Mann-Whitney non-parametric t test was performed for differences between groups. For cytokine analysis, a Mann-Whitney non-parametric test was performed.

For the next series, the system named is HNC. Particulars: cited from earlier work.
For series [1], the system named is recurrent or metastatic SCCHN. To be noted: cited from earlier work.
A further series concerns PBMC. Kind of series: PBMC cytokine release, multiplex cytokine assay. The class given is cell-based. How it is done:
as §1

As for `CCCN(CCC)C(=O)C1=Cc2ccc(-c3ccc(C(=O)N4CCCC4)cc3)cc2N=C(N)C1` [motolimod, 2-amino-N,N-dipropyl-8-[4-(pyrrolidin-1-ylcarbonyl)phenyl]-3H-1-benzazepine-4-carboxamide], the “cetuximab-mediated ADCC by TLR8 stimulated PBMC from HNC patients” value with EGFR^| UM-22B HNC cells (PBMC from HNC patients, p=0.0262) is “more avid effectors”. In addition, in the series with EGFR^| UM-22B HNC cells (motolimod 250 nM 18 hr pre-treatment, cetuximab 10 μg/mL, 4 hr, FF genotype), the “enhancement of ADCC lytic activity in NK, FcγR IIIc FF genotype” value was 2.6 fold. In addition, the “enhancement of ADCC lytic activity in NK, VF genotype” value with EGFR^| UM-22B HNC cells (motolimod 250 nM 18 hr pre-treatment, cetuximab 10 μg/mL, 4 hr, VF genotype) is given as 1.7 fold. Besides, the “enhancement of ADCC lytic activity in NK, VV genotype” value with EGFR^| UM-22B HNC cells (motolimod 250 nM 18 hr pre-treatment, cetuximab 10 μg/mL, 4 hr, VV genotype) was 1.8 fold. For the same molecule, in the series on EGFR^| UM-22B HNC cells (summary statement), the “cetuximab-mediated ADCC against HNC cells” value was “enhanced”. For the same molecule, the “cetuximab-mediated ADCC and DC IVS of CD8^+ T cells in HNC” value in the series with HNC (in vitro) is “significantly enhances”. Further, the “DC maturation and cross-priming of CD8^+ cells” value with HNC (motolimod in combination with cetuximab) is listed as “enhances”. Moreover, the “clinical activity (pharmacologic evidence)” value in series [1] (in combination with cetuximab, escalating doses of motolimod) is listed as “dose-dependent clinical activity”. In addition, in series [1] (motolimod days 1, 8, 15 in combination with weekly cetuximab, 28-day cycles), the safety profile result is “acceptable safety profile”. Moreover, in the series with PBMC (p<0.0001), the “IFN-γ secretion, treated versus untreated PBMC” value is given as “significantly higher levels” and the “TNF-α secretion, treated versus untreated PBMC” value is given as “significantly higher levels”. In the series on PBMC (p=0.0002), the “IL-12p40 secretion, treated versus untreated PBMC” value is given as “significantly higher levels”. Also, in the series on PBMC (p=0.03), the “IL-12p70 secretion, treated versus untreated PBMC” value is given as “significantly higher levels”.
